# Values of other authors in patent publication US20140011755A1, “Cardiac Glycosides for Treating Autoimmune Disease” (Department of Veterans Affairs, priority 2010, published 2014).
# What was measured:
# [1] = CHCI3/16% aqueous methanol (MeOH); cited from earlier work
# [2] = Human, oral; Smith, TW (1970); cited from earlier work
structure (smiles),measurement,setting,value
"C[C@H]1O[C@@H](O[C@H]2[C@@H](O)C[C@H](O[C@H]3[C@@H](O)C[C@H](O[C@H]4CC[C@@]5(C)[C@H](CC[C@@H]6[C@@H]5CC[C@]5(C)[C@@H](C7=CC(=O)OC7)CC[C@]65O)C4)O[C@@H]3C)O[C@@H]2C)C[C@H](O)[C@@H]1O [Digitoxin, digitoxin]",Partition Coefficient,[1],96.5
same,Serum conc.,[2],17 ng/mL
